# Bridge positions count the residues as written; N and C are the ends. Ends that are not written are not given here.
# B1: mBD-1: murine β defensin, tested as lysates of SW 13 cells transfected with full length mBD-1 cDNA (protein)
# chain: MKTHYFLLVMICFLFSQMEPGVGILTSLGRRTDQYKCLQHGGFCLRSSCPSNTKLQGTCKPDKPNCCKS
# Columns and labels:
# E. coli = experiment: Colony count killing assay of synthetic hBD-1; type: cell-based, Escherichia coli; conditions: synthetic hBD-1, low NaCl
# Procedure: (§1) Essentially, for assays involving Pseudomonas and Escherichia coli, approximately 5×10^4 bacterial cells were exposed to about 50 μg to 500 μg of synthetic hBD-1 in 10 mM phosphate buffer (pH 7.4) in a reaction volume of 100 μl. Samples were incubated at 37° C. for 20 minutes and were then diluted to 1 ml total volume with the corresponding test buffer. A volume of 100 μl of this solution and of two 10-fold serial dilutions thereof, were plated and incubated overnight at 37° C. to facilitate colony formation.
# Pseudomonas aeruginosa [1] = experiment: Colony count killing and salt dependence assay of synthetic hBD-1; type: cell-based
# Procedure: FIG. 7 is a graph depicting salt sensitivity of hBD-1 antimicrobial activity against Pseudomonas aeruginosa. Synthetic hBD-1 was incubated with 5×10^4 colony forming units of P. aeruginosa in 100 μl of 10 mM phosphate buffer (pH 7.4) and the indicated concentrations of NaCl. Reactions were then incubated at 37° C. for 20 minutes. Serial dilutions were plated and colony counts were performed the following day.
# as §1
# Salt dependence of antibiotic activity was measured essentially as described for α-defensins (Lehrer et al., 1983, supra; Selsted et al., 1984, supra). Briefly, approximately 5×10^4 bacterial cells were exposed to 50 μg of synthetic hBD-1 in 10 mM phosphate buffer (pH 7.4) containing varying concentrations of NaCl in a reaction volume of 100 μl. Reactions were incubated at 37° C. for 20 minutes and were then diluted to 1 ml total volume with the corresponding test buffer. […]
# Pseudomonas aeruginosa [2] = experiment: Antibiotic activity of extracts of 293 cells transfected with hBD-1 cDNA; type: cell-based; conditions: extracts of kidney cells transfected with full length hBD-1 cDNA; mock transfected did not
# Procedure: (§2) Human embryonal kidney cells (293) (ATCC CRL 1573) grown in the absence of antibiotics were transfected with the pCMV mammalian reporter vector (Clontech) containing the full length hBD-1 cDNA. Transfected and control mock transfected cells were harvested at 24 to 48 hours postransfection, pelleted by centrifugation, resuspended in 10 mM phosphate buffer (pH 7.4) and lysed by brief sonication. Cell debris was removed by centrifugation and the resulting supernatant was tested for antibiotic activity. Approximately 10^3 or 10^4 bacteria were exposed to cell extracts for 2 hours in 10 mM phosphate buffer (pH 7.4) and cell viability was measured by plating several dilutions and counting colonies the following day.
# Staphylococcus aureus = experiment: as above; type: cell-based; conditions: extracts of kidney cells transfected with full length hBD-1 cDNA; mock transfected did not
# Procedure: as §2
# Escherichia coli [3] = experiment: as above; type: cell-based; conditions: extracts of kidney cells transfected with full length hBD-1 cDNA; mock transfected did not
# Procedure: as §2
# Escherichia coli [4] = experiment: Broth culture assay of synthetic hBD-1 (optical density); type: cell-based; conditions: 500 μg synthetic hBD-1, 1×10^4 bacterial cells in 200 μl 0.25×LB, 7 hours, background subtracted; untreated 0.127
# Procedure: A broth culture assay was also used to assess the antimicrobial activity of hBD-1 directed against Escherichia coli. In this instance, 1×10^4 bacterial cells in 200 μl of 0.25×LB broth were incubated at 37DC in the presence or absence of 500 μg of synthetic hBD-1. After 7 hours, the optical density at 630 nm of the cultures was recorded as a measure of bacterial growth. After subtraction of background due to growth medium, the average optical density of the untreated cultures was 0.127 whereas those containing hBD-1 was 0.004, indicating nearly complete suppression of bacterial growth.
# Escherichia coli D31 = experiment: Diffusion and liquid broth assays of lysates of mBD-1 transfected cells, incl. salt and pH dependency; type: cell-based
# Procedure: (§3) FIG. 14 is a series of graphs depicting the results of antibacterial assays on mBD-1. In FIGS. 14A, 14B and 14C there is shown the results of antibacterial liquid broth coincubation assays. E. coli (FIG. 14A), S. aureus (FIG. 14B) and P. aertiginosa (FIG. 14C) were added at a concentration of 10^3 to 10^4 cfu to 50 μl of lysates obtained from cells transfected with vector containing full length mBD-1 cDNA (empty circles) or cells transfected with the vector alone (filled circles). Each circle shown represents the results of an individual transfection experiment. In FIG. 14D there is shown the salt sensitivity of the antimicrobial activity of mBD-1. Extracts of mBD-1 transfected cells were incubated with 5×10^4 colony-forming units of E. coli D31 in 100 mM phosphate buffer (pH 7.4) and the indicated concentrations of NaCl. After incubation at 37° C. for 1 hour, serial dilutions of bacteria were plated and colonies were counted the following day.
# To test the antibacterial activity of mBD-1, lysates obtained from cells transfected with mBD-1 cDNA positioned in a transfection vector were analyzed. A clinical isolate of Staphylococcus aureus, Escherichia coli D31 (Steiner et al., 1981, Nature 292:246-248), and a clinical isolate of Pseudomonas aeruginosa were used as test organisms in both diffusion assays and liquid broth assays. […]
# (§4) Antibacterial liquid broth assays were performed as previously described for α-defensins (Steiner et al., 1981, Nature 292:246-248). […] Cell viability was measured by plating several dilutions and counting colonies the following day. […]
# To analyze the salt dependency of the activity of mBD-1 against E. coli D31, NaCl was added to aliquots of the agarose solution to obtain final concentrations of NaCl of 50 mM, 100 mM, 200 mM and 500 mM. The exact concentration of NaCl in the solutions was measured using Na or Cl sensitive electrodes (Microelectrodes). […]
# [5] = tested on: Staphylococcus aureus (clinical isolate); experiment: Diffusion and liquid broth assays of lysates of mBD-1 transfected cells; type: cell-based; conditions: lysates of SW 13 cells transfected with mBD-1 cDNA
# Procedure: as §3
# (§5) To test the antibacterial activity of mBD-1, lysates obtained from cells transfected with mBD-1 cDNA positioned in a transfection vector were analyzed. […]
# as §4
# [6] = tested on: Pseudomonas aeruginosa (clinical isolate); experiment: as above; type: cell-based; conditions: lysates of SW 13 cells transfected with mBD-1 cDNA
# Procedure: as §3, §5, §4
molecule,measurement,setting,value
"hBD-1: human β-defensin 1; synthetic mature peptide with disulfide bridges Cys5-Cys34, Cys12-Cys27, Cys17-Cys35; also tested as extracts of cDNA-transfected cells (DHYNCVSSGGQCLYSACPIFTKIQGTCYRGKAKCCK; disulfide 12-27, 17-35, 5-34; UniProt P60022 33-68, looked up)",bactericidal activity,E. coli,potent bactericidal activity
same,hBD-1 concentrations at which bacterial killing was observed,"Pseudomonas aeruginosa [1]; low NaCl, 10 mM phosphate buffer pH 7.4, 37° C., 20 minutes",60 to 500 µg/mL
same,bactericidal activity,"Pseudomonas aeruginosa [1]; synthetic hBD-1, low NaCl",potent bactericidal activity
same,antibiotic activity of transfected cell extracts,Pseudomonas aeruginosa [2],exhibited antibiotic activity
same,antibiotic activity of transfected cell extracts,Staphylococcus aureus,exhibited antibiotic activity
same,antibiotic activity of transfected cell extracts,Escherichia coli [3],exhibited antibiotic activity
same,average optical density at 630 nm of cultures (bacterial growth),Escherichia coli [4],0.004
B1,antimicrobial activity of lysates,"Escherichia coli D31; lysates of SW 13 cells transfected with mBD-1 cDNA, diffusion and liquid broth assays",active
same,antimicrobial activity in acidic pH,"Escherichia coli D31; lysates of mBD-1 transfected cells, acidic pH",substantially diminished and lost
same,antimicrobial activity in high concentrations of NaCl,"Escherichia coli D31; lysates of mBD-1 transfected cells, high NaCl",substantially diminished and lost
same,antimicrobial activity of lysates,[5],active
same,antimicrobial activity of lysates,[6],active

# From patent publication US6399370B1, “Compositions and methods for use of defensin” (priority 1996, dated 2002)
